Assay results: article PMC8584173, “The Cytotoxic Effect of Copper (II) Complexes with Halogenated 1,3-Disubstituted Arylthioureas on Cancer and Bacterial Cells” (International Journal of Molecular Sciences, 2021)

Assays:
C. albicans ATCC 90028 = experiment: MIC, twofold serial microdilution; format: cell-based, Candida albicans; conditions: C. albicans ATCC 90028, 24 h, 35 °C
Experimental: (§1) The antimicrobial activity of the compounds was tested on Gram-positive bacteria (Staphylococcus aureus NCTC 4163, Staphylococcus aureus ATCC 25923, Staphylococcus aureus ATCC 6538, Staphylococcus aureus ATCC 29213, Staphylococcus epidermidis ATCC 12228, Staphylococcus epidermidis ATCC 35984), Gram-negative rods (Escherichia coli ATCC 10538, Escherichia coli ATCC 25922, Pseudomonas aeruginosa ATCC 15442, Pseudomonas aeruginosa ATCC 27863) and yeasts (Candida albicans ATCC 10231, Candida albicans ATCC 90028, Candida parapsilosis ATCC 22019). Hospital methicillin-resistant strains of Staphylococcus aureus and Staphylococcus epidermidis were obtained from the collection of the Department of Pharmaceutical Microbiology, Medical University of Warsaw, Poland.
(§2) Antifungal activities were assessed using Mueller–Hinton agar + 2% glucose and 0.5 µg/mL methylene blue dye medium. Sterile filter paper discs (9 mm diameter, Whatman Number 3 chromatography paper) were dripped with tested compound solutions (in dimethylsulfoxide, DMSO) to load 400 μg of a given compound per disc. Dry discs were placed on the surface of appropriate agar medium. The results (diameter of the growth inhibition zone) were read after 18 h of incubation at 35 °C. Minimal inhibitory concentration (MIC) was tested by the twofold serial microdilution method (in 96-well microtiter plates) using Mueller–Hinton broth medium (Beckton Dickinson) for bacteria or RPMI-1640 medium for Candida species, according to CLSI guidelines. The stock solution of tested agent was prepared in DMSO and diluted in sterile water. […] The final inoculum of all studied microorganisms was 10^5 CFU/ mL^−1 (colony forming units per ml). Minimal inhibitory concentrations (the lowest concentration of a tested agent that prevents visible growth of a microorganism) were read after 18 h (bacteria) or 24 h (yeasts) of incubation at 35 °C.

C. albicans ATCC 10231 = experiment: MIC, twofold serial microdilution; format: cell-based, Candida albicans; conditions: C. albicans ATCC 10231, 24 h, 35 °C
Experimental: as §1, §2

P. aeruginosa ATCC 15442 = experiment: MIC, twofold serial microdilution; format: cell-based, Pseudomonas aeruginosa; conditions: P. aeruginosa ATCC 15442, 18 h, 35 °C
Experimental: as §1, §2

P. aeruginosa ATCC 27853 = experiment: MIC, twofold serial microdilution; format: cell-based, Pseudomonas aeruginosa; conditions: P. aeruginosa ATCC 27853, 18 h, 35 °C
Experimental: as §1, §2

[1] = tested on: Bacillus subtilis H17 (rec+); experiment: Bacillus subtilis rec-assay, H17; format: cell-based; conditions: B. subtilis H17; 256 µg per disc (NOQ 2 µg per disc)
Experimental: (§3) DNA-damaging activity of compounds was tested by rec-assay using two genetically modified Bacillus subtilis strains: M45 (rec^−) and H17 (rec^+). Tested compounds were dissolved in DMSO, and 10 µL of each solution was dripped onto sterile cotton discs (Rotilabo) to load 256 µg of a given compound per 9 mm disc. Discs were placed on the surface nutrient agar plates (Difco), inoculated with 100 µL of bacterial overnight culture and incubated […] at 35 °C. After incubation, the growth inhibition zones were measured. […] Results of the genotoxicity test were estimated after 18 h of incubation at 35 °C by comparing the diameter of the inhibition zone on the B. subtilis M45 (rec^−) strain with that on the B. subtilis H17 (rec^+) strain.

[2] = tested on: hospital S. epidermidis (MRSE); experiment: MIC, hospital S. epidermidis; format: cell-based, Staphylococcus epidermidis; conditions: for times more effective than the reference chemotherapeutic (ciprofloxacin): S. epidermidis 424, 471, 511, 515 and 431–433 isolates
Experimental: as §1, §2

[3] = tested on: SW480 (human primary colon cancer); experiment: MTT cytotoxicity assay, SW480; format: cell-based; conditions: SW480, 72 h
Experimental: (§4) The human primary (SW480), metastatic (SW620) colon cancer, metastatic prostate cancer (PC3) and human immortal keratinocyte (HaCaT) cell lines were purchased from the American Type Culture Collection (ATCC, Rockville, USA). The cells were cultured in medium according to protocols (MEM for SW480 and SW620, RPMI 1640 for PC3 and DMEM for HaCaT cells) supplemented with 10% fetal bovine serum (FBS), penicillin (100 U/mL) and streptomycin (100 μg/mL) and cultured in 37 °C/ 5% CO2 humidified incubator. The cells were cultured until appropriate confluence was achieved (80–90%). Next, they were harvested by treatment with 0.25% trypsin (Gibco Life Technologies, USA) and used for studies.
(§5) Cells without studied compounds in medium were used as a control.
(§6) The cell viability was assessed by determination of MTT salt (3-(4,5-dimethylthiazol-2-yl)-2,5-diphenyltetrazolium bromide) conversion by mitochondrial dehydrogenase. MTT assay was performed as previously described. Experiments were repeated three times. Cell viability was presented as a percentage of MTT reduction in the treated cells versus the control cells. Number of viable cells cultured without studied compounds was assumed to be 100%. Decreased relative MTT level means decreased cell viability. Thiourea complexes with the highest cytotoxic potential assessed by MTT determination (with the lowest IC50) were chosen for subsequent assessments of cytotoxicity mechanisms.

[4] = tested on: HaCaT (human immortal keratinocyte cell line); experiment: MTT cytotoxicity assay, HaCaT; format: cell-based; conditions: HaCaT normal cells, 72 h
Experimental: as §4, §5, §6

S. aureus 522 = experiment: MIC, hospital MRSA strain; format: cell-based, Staphylococcus aureus; conditions: hospital MRSA S. aureus 522
Experimental: as §1, §2

S. aureus 568 = experiment: MIC, hospital MRSA strain; format: cell-based, Staphylococcus aureus; conditions: hospital MRSA S. aureus 568
Experimental: as §1, §2

S. aureus 585 = experiment: MIC, hospital MRSA strain; format: cell-based, Staphylococcus aureus; conditions: hospital MRSA S. aureus 585
Experimental: as §1, §2

S. aureus 514 = experiment: MIC, hospital MRSA strain; format: cell-based, Staphylococcus aureus; conditions: hospital MRSA S. aureus 514
Experimental: as §1, §2

S. aureus 498 = experiment: MIC, hospital MRSA strain; format: cell-based, Staphylococcus aureus; conditions: hospital MRSA S. aureus 498
Experimental: as §1, §2

[5] = tested on: S. epidermidis ATCC 35984; experiment: MIC, twofold serial microdilution; format: cell-based, Staphylococcus epidermidis; conditions: S. epidermidis ATCC 35984, 18 h, 35 °C
Experimental: as §1, §2

[6] = tested on: S. epidermidis ATCC 12228; experiment: MIC, twofold serial microdilution; format: cell-based, Staphylococcus epidermidis; conditions: S. epidermidis ATCC 12228, 18 h, 35 °C
Experimental: as §1, §2

E. coli ATCC 25922 = experiment: MIC, twofold serial microdilution; format: cell-based, Escherichia coli; conditions: E. coli ATCC 25922, 18 h, 35 °C
Experimental: as §1, §2

E. coli NCTC 10538 = experiment: MIC, twofold serial microdilution; format: cell-based, Escherichia coli; conditions: E. coli NCTC 10538, 18 h, 35 °C
Experimental: as §1, §2

[7] = tested on: Bacillus subtilis M45 (rec−); experiment: Bacillus subtilis rec-assay, M45; format: cell-based; conditions: B. subtilis M45; 256 µg per disc (NOQ 2 µg per disc)
Experimental: as §3

Row | SMILES | MIC (C. albicans ATCC 90028) [µg/mL] | MIC (C. albicans ATCC 10231) [µg/mL] | MIC (P. aeruginosa ATCC 15442) [µg/mL] | MIC (P. aeruginosa ATCC 27853) [µg/mL] | inhibition zone diameter [1] [mm] | times more effective than the reference chemotherapeutic (ciprofloxacin) [2] | IC50 [3] [µM] | IC50 [4] [µM] | MIC (S. aureus 522) [µg/mL] | MIC (S. aureus 568) [µg/mL] | MIC (S. aureus 585) [µg/mL] | MIC (S. aureus 514) [µg/mL] | MIC (S. aureus 498) [µg/mL] | MIC [5] [µg/mL] | MIC [6] [µg/mL] | MIC (E. coli ATCC 25922) [µg/mL] | MIC (E. coli NCTC 10538) [µg/mL] | inhibition zone diameter [7] [mm] | MIC ([2]; most of hospital S. epidermidis species) [µg/mL]
1 | O=[N+]([O-])c1cc([N+]2=C(Nc3ccccc3Br)[S][Cu-2]23[S]C(Nc2ccccc2Br)=[N+]3c2ccc(Cl)c([N+](=O)[O-])c2)ccc1Cl [Compound 1, Copper (II) complex with 1-(2-bromophenyl)-3-(4-chloro-3-nitrophenyl)thiourea] | ≥256 | ≥256 | 128 | 128 | 12 | 2–16 times | 4.7 ± 0.3 | 110 ± 3.4 | 8 | 8 | 8 | 8 | 8 | 8 | 16 | 256 | 128 | 12 | 
2 | O=[N+]([O-])c1cc([N+]2=C(Nc3ccc(Cl)c(Cl)c3)[S][Cu-2]23[S]C(Nc2ccc(Cl)c(Cl)c2)=[N+]3c2ccc(Cl)c([N+](=O)[O-])c2)ccc1Cl [Compound 5, Copper (II) complex with 1-(4-chloro-3-nitrophenyl)-3-(3,4-dichlorophenyl)thiourea] | 128 | 128 | 128 | 128 | 17 |  | 20.6 ± 2.1 | 165 ± 4.7 | 16 | 16 | 16 | 32 | 16 | 32 | 32 | 128 | 128 | 18 | 
3 | O=[N+]([O-])c1cc([N+]2=C(Nc3ccc(I)cc3)[S][Cu-2]23[S]C(Nc2ccc(I)cc2)=[N+]3c2ccc(Cl)c([N+](=O)[O-])c2)ccc1Cl [Compound 8, Copper (II) complex with 1-(4-iodophenyl)-3-(4-chloro-3-nitrophenyl)thiourea] | 128 | 64 | 128 | 128 | 14 | 2–16 times | 3.9 ± 0.8 | 103 ± 3.4 | 4 | 8 | 8 | 4 | 8 | 4 | 8 | 128 | 128 | 14 | 
4 | O=[N+]([O-])c1cc([N+]2=C(Nc3ccccc3F)[S][Cu-2]23[S]C(Nc2ccccc2F)=[N+]3c2ccc(Cl)c([N+](=O)[O-])c2)ccc1Cl [Compound 7, Copper (II) complex with 1-(2-fluorophenyl)-3-(4-chloro-3-nitrophenyl)thiourea] | 128 | 128 | >256 | 128 | 15 | 2–16 times | 15.5 ± 2.6 | 138 ± 4.4 | 8 | 8 | 8 | 8 | 4 | 32 | 32 | 256 | 128 | 18 | 
5 | O=[N+]([O-])c1cc([N+]2=C(Nc3ccc(Br)cc3)[S][Cu-2]23[S]C(Nc2ccc(Br)cc2)=[N+]3c2ccc(Cl)c([N+](=O)[O-])c2)ccc1Cl [Compound 3, Copper (II) complex with 1-(4-bromophenyl)-3-(4-chloro-3-nitrophenyl)thiourea] | 64 | 64 | 128 | 128 | 15 |  | 11.9 ± 2.1 | 103 ± 3.2 | 4 | 4 | 4 | 4 | 4 | 16 | 16 | >256 | 128 | 15 | 4 to 8
6 | O=[N+]([O-])c1cc(NC2=[N+](c3ccc(Cl)c([N+](=O)[O-])c3)[Cu-2]3([S]2)[S]C(Nc2ccc(Cl)c([N+](=O)[O-])c2)=[N+]3c2ccc(Cl)c([N+](=O)[O-])c2)ccc1Cl [Compound 6, Copper (II) complex with 1,3-bis(4-chloro-3-nitrophenyl)thiourea] | 64 | 64 | 128 | 128 | 16 |  | 26.8 ± 2.3 | 123 ± 2.1 | 32 | 32 | 32 | 32 | 32 | 8 | 8 | 128 | 128 | 15 | 
